Reference: patent US20260015313A1, “AMINO ACID ACTIVE ESTER AND SALT THEREOF” (PeptiDream Inc., priority 2022, published 2026)

system: tRNA analog (microhelix); assay: Aminoacylation of tRNA analog (microhelix) with flexizyme eFx, acid PAGE analysis; assay type: biochemical; settings: 5 mM substrate, 50 mM Hepes-K pH 7.5, 600 mM MgCl2, 20% DMSO, on ice overnight, FIG. 1-3, 1-4
Protocol: (§1) In the present embodiment, a tRNA was aminoacylated with the active ester synthesized in Example 1 as a substrate using a flexizyme. In order to conveniently confirm acylation with various amino acids, the acylation reaction was performed using, instead of an initiating tRNA (tRNA^Met), a microhelix corresponding to a short analog of the initiating tRNA and the solution after the reaction was subjected to polyacrylamide gel electrophoresis analysis under acidic conditions in order to confirm the aminoacylation efficiency. The mobility of the band derived from the microhelix is slow when it has been aminoacylated. The aminoacylation efficiency can be determined by comparing the intensity of the microhelix band to that of the acylated microhelix band.
The acylation reaction was carried out overnight on ice in a 50 mM Hepes-K buffer (pH 7.5) and 600 mM MgCl2, with a 25 µM flexizyme (eFx), a 25 µM tRNA analog (microhelix) and 5 mM substrate added to 20% DMSO. […]
The detailed procedure was as follows: 4 μL of a 500 mM Hepes-K buffer (pH 7.5), 4 μL of a 250 µM flexizyme (eFx) and 4 μL of a 250 µM tRNA analog were added to 12 μL of ultrapure water, and the mixture was heated at 95° C. for 3 minutes, and allowed to cool at room temperature for 5 minutes. […] This solution was analyzed with 20% modified PAGE (50 mM sodium acetate, 6 M urea) under acidic conditions.

| SMILES | acylation of tRNA analog by the flexizyme (aminoacylation efficiency) |
| --- | --- |
| N[C@@H](CCc1ccccc1)C(=O)OCC(F)(F)F [Compound No. 47, 2,2,2-trifluoroethyl (S)-2-amino-4-phenylbutanoate] | efficiently acylated |

system: tRNA analog (microhelix); assay: Aminoacylation of tRNA analog (microhelix) with flexizyme dFx, acid PAGE analysis; assay type: biochemical; settings: 5 mM substrate, 50 mM Hepes-K pH 7.5, 50 mM MgCl2, 20% DMSO, on ice overnight, FIG. 1-1, 1-2
Protocol: as §1
The acylation reaction was carried out overnight on ice in a 50 mM Hepes-K buffer (pH 7.5) and 50 mM MgCl2, with a 25 µM flexizyme (dFx), a 25 μM tRNA analog (microhelix) and a 5 mM substrate added to 20% DMSO. […]
The detailed procedure was as follows: 1 μL of a 500 mM Hepes-K buffer (pH 7.5), 1 μL of a 250 µM flexizyme (dFx) and 1 μL of a 250 µM tRNA analog were added to 3 μL of ultrapure water, and the mixture was heated at 95° C. for 2 minutes, and allowed to cool at room temperature for 5 minutes. […] This solution was analyzed with 20% modified PAGE (50 mM sodium acetate, 6 M urea) under acidic conditions.

| SMILES | acylation of tRNA analog by the flexizyme (aminoacylation efficiency) |
| --- | --- |
| NCC(=O)OCc1cc(Cl)nc(Cl)c1 [Compound No. 99, (2,6-dichloropyridin-4-yl)methyl glycinate] | efficiently acylated |
| CC[C@H](C)[C@H](N)C(=O)OCc1cc(Cl)nc(Cl)c1 [Compound No. 21, (2,6-dichloropyridin-4-yl)methyl L-isoleucinate] | efficiently acylated |

system: not listed separately; assay: Differential scanning calorimetry (DSC) hazard determination (TDSC, QDSC; Category V Hazardous materials, self-reactive substances); assay type: physicochemical; settings: about 2 mg, SUS pressure-resistant cell, to 500° C. at 10° C./min, nitrogen, line through 2,4-dinitrotoluene and benzoyl peroxide, on or above = hazardous, FIG. 2
Excerpt: Differential scanning calorimetry (DSC) can be used as a method for determining the hazard of an amino acid active ester (Akiyoshi et al., Netsu Sokutei 2018, 45(4), 161-167.; Sakira Kaneko, Netsu Sokutei 1995, 22(1), 36-43.). DSC is an effective means for assessing the hazard of a self-reactive substance, because it can measure the reaction starting temperature (TDSC) and the reaction heat (QDSC) with a trace amount of sample. […] In Japan, DSC is used as a test to determine whether a chemical substance falls under the Category V Hazardous materials (self-reactive substances) under the Japanese Fire Service Act.
Examples of the test for determining whether a chemical substance falls under the Category V Hazardous materials (self-reactive substances) in the Japanese Fire Service Act include a method involving using 2,4-dinitrotoluene and benzoyl peroxide as reference compounds, plotting the reference points of QDSC and TDSC for each of the compounds and drawing a straight line connecting the two points as the hazard determination line.
The QDSC and TDSC values of 2,4-dinitrotoluene (Compound No. 115) and benzoyl peroxide (Compound No. 116) were taken from the following literature: DSC Data Collection for Reactive Substances (2) (RIIS-SD-89), https://www.jniosh.johas.go.jp/publication/houkoku/houkoku_2007_03_list.html.
The detailed procedure for differential scanning calorimetry (DSC) is as follows:
The amino acid active ester (about 2 mg), which had been sealed in a SUS pressure-resistant cell, was set in a heat flux type differential scanning calorimeter, and heated to 500° C. at 10° C./min in an atmosphere of nitrogen 50 mL/min. The sealing into the cell was carried out in atmospheric air, and a blank cell was used as a reference material. The value of indium (In) measured under the same conditions was used as a standard for correction.
In FIG. 2, the dotted line indicates the hazard determination line. […] The abscissa axis indicates the log(TDSC-25) value, and the ordinate axis indicates the log QDSC value. In FIG. 2, -L-Hph-DBE_HCl indicates the hydrochloride of 3,5-dinitrobenzyl (S)-2-amino-4-phenylbutanoate (Compound No. 114), Gly-DBE_HCl indicates the hydrochloride of 3,5-dinitrobenzyl glycinate (Compound No. 112), -L-Ile-DBE_HCl indicates the hydrochloride of 3,5-dinitrobenzyl L-isoleucinate (Compound No. 111), -L-W7N-DBE_HCl indicates the hydrochloride of 3,5-dinitrobenzyl (S)-2-amino-3-(1H-pyrrolo[2,3-b]pyridin-3-yl)propanoate (Compound No. 113), -L-Ile-DCPE_HCl indicates (2,6-dichloropyridin-4-yl)methyl L-isoleucinate (Compound No. 21), -L-W7N-TEE_HCl indicates 2,2,2-trifluoroethyl (S)-2-amino-3-(1H-pyrrolo[2,3-b]pyridin-3-yl)propanoate (Compound No. 81), and Gly-DCPE_HCl indicates (2,6-dichloropyridin-4-yl)methyl glycinate (Compound No. 99).

| SMILES | position of log QDSC vs log(TDSC-25) plot relative to hazard determination line |
| --- | --- |
| N[C@@H](CCc1ccccc1)C(=O)OCc1cc([N+](=O)[O-])cc([N+](=O)[O-])c1 [L-Hph-DBE_HCl, 3,5-dinitrobenzyl (S)-2-amino-4-phenylbutanoate] | above the hazard determination line |
| Cl.Cl.N[C@@H](Cc1c[nH]c2ncccc12)C(=O)OCC(F)(F)F [L-W7N-TEE_HCl, 2,2,2-Trifluoroethyl (S)-2-amino-3-(1H-pyrrolo[2,3-b]pyridin-3-yl)propanoate dihydrochloride] | below the hazard determination line |
| CC[C@H](C)[C@H](N)C(=O)OCc1cc([N+](=O)[O-])cc([N+](=O)[O-])c1 [L-Ile-DBE_HCl, 3,5-dinitrobenzyl L-isoleucinate] | above the hazard determination line |
| CC[C@H](C)[C@H](N)C(=O)OCc1cc(Cl)nc(Cl)c1.Cl [L-Ile-DCPE_HCl, (2,6-Dichloropyridin-4-yl)methyl L-isoleucinate hydrochloride] | below the hazard determination line |
| Cl.NCC(=O)OCc1cc(Cl)nc(Cl)c1 [Gly-DCPE_HCl, (2,6-Dichloropyridin-4-yl)methyl glycinate hydrochloride] | below the hazard determination line |
| N[C@@H](Cc1c[nH]c2ncccc12)C(=O)OCc1cc([N+](=O)[O-])cc([N+](=O)[O-])c1 [L-W7N-DBE_HCl, 3,5-dinitrobenzyl (S)-2-amino-3-(1H-pyrrolo[2,3-b]pyridin-3-yl)propanoate] | above the hazard determination line |
| NCC(=O)OCc1cc([N+](=O)[O-])cc([N+](=O)[O-])c1 [Gly-DBE_HCl, 3,5-dinitrobenzyl glycinate] | above the hazard determination line |
